Test results taken from article PMC6017200, “Inhibition of Cytochrome P450 Activities by Extracts of Hyptis verticillata Jacq.: Assessment for Potential HERB-Drug Interactions” (Molecules : A Journal of Synthetic Chemistry and Natural …, 2018).
Converted amounts (≈) assume the structure as drawn. “Also recorded” adds a separate entry of the source. Like-named read-outs stand apart in the source and are kept apart here.

Tests used:
[1] = parameters: method as in PMID 24413832; conditions: aerial dried samples in ethanol; cited from earlier work
[2] = biological target: T1, human CYP1A2 (Homo sapiens, UniProt P05177); experiment: biochemical
T1 sequence (P05177 1-516): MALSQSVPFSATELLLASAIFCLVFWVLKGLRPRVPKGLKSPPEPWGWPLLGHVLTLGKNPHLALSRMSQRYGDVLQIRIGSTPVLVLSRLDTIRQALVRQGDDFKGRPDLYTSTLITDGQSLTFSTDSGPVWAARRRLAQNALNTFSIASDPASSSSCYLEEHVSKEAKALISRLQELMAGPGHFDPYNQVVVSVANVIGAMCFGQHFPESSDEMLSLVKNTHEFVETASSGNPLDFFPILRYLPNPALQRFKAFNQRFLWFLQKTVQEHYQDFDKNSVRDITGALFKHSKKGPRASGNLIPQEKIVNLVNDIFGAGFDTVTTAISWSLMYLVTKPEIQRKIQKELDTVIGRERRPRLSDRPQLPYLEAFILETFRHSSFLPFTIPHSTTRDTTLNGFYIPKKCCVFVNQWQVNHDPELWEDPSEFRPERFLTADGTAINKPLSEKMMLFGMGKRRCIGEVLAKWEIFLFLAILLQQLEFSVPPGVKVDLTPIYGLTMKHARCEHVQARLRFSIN
Procedure: Escherichia coli membranes expressing human CYP1A1, CYP1A2, CYP1B1, CYP3A4, and CYP2D6, co-expressed with CYP reductase, were purchased from Cypex Ltd. (Dundee, UK).
The following methodology was developed by Crespi et al. and adapted by Shields et al. and Murray et al. to screen natural products for cytochrome P450 inhibition potential with a particular emphasis on the P450 enzymes, CYPs 1A1, 1A2, 1B1, 3A4 and 2D6. Plant extracts and various phytochemicals were evaluated for their ability to inhibit the catalytic activity of human cytochrome P450 enzymes by means of high throughput fluorometric inhibition assays conducted in 96 well microtitre plates as described by Crespi et al., BD Gentest and Murray et al..
7-Ethoxy-3-cyanocoumarin (CEC) was used as a substrate for detecting the activities of CYPs 1A1, and 1A2, 7-ethoxyresorufin (ERes) for CYP1B1, 7-benzyloxy-4-trifluoromethylcoumarin (BFC) for CYP3A4, and 3-[2-(N,N-diethyl-N-methylammonium)-ethyl]-7-methoxy-4-methylcoumarin (AMMC) for CYP2D6. The reactions were monitored fluorometrically at 37 °C, using an Eclipse Fluorescence Spectrophotometer (Varian Cary, Palo Alto, CA, USA).
The data listed represent average values from a minimum of two experiments run in triplicate: % Enzyme activity = [Min + (Max − Min)/(1+10^((LogIC50^− x) × p))] where Min and Max are the minimal and maximal observed effects, respectively; x is the concentration of test agent; EC50 is the concentration yielding half-maximal response (i.e., IC50); and p is the slope parameter.

[3] = tested on: CYP2D6; conditions: read-out: IC50 Value, reported CYP2D6 inhibition, cited from earlier work
[4] = tested on: CYP1A2; conditions: human liver microsomes, read-out: IC50 Value, reported CYP1A2 inhibition, cited from earlier work
[5] = tested on: CYP2C8/C9/C19; conditions: human liver microsomes; read-out: IC50 Value, reported CYP2C8/C9/C19 inhibition; cited from earlier work
[6] = tested on: CYP3A4; conditions: cited from earlier work; for IC50: read-out: IC50 Value, reported CYP3A4 inhibition
[7] = tested on: CYP2C9; parameters: method as in PMID 21276781; conditions: read-out: IC50 Value, reported CYP2C9 inhibition; cited from earlier work
[8] = DPPH radical scavenging antioxidant assay; conditions: 0.097 to 50 µg/mL in methanol, thirty-minute incubation, 517 nm
Procedure: The 1,1-diphenyl-2-picrylhydrazyl (DPPH) assay was used to measure the antioxidant capacity of four different extracts of the aerial parts of H. verticillata (Figure 2). The reduction of DPPH to hydrazine produces a colour change from purple to yellow, which is measured spectrophotometrically and compared with the known antioxidant, ascorbic acid, as described in the Materials and Methods section.
Figure 2 (A) DPPH antioxidant assay for H. verticillata extracts. […] Positive control activity was determined in the presence of varying concentrations of known antioxidant, ascorbic acid, ranging from 0.097 to 50 µg/mL. Data are expressed as Mean Percentage Antioxidant Activity (% Inhibition of DPPH) for duplicate assays for at least two independent experiments. (B) Summary of results. […]
The DPPH radical scavenging capacity of extracts of H. verticillata were evaluated by the method described by Williams et al.. The electron-donating ability of each extract, at varying concentrations, was measured colourimetrically through the bleaching of purple-coloured MeOH solution of DPPH. […]
Each test extract, as well as the ascorbic acid control, was made up in methanol to a starting concentration of 50 µg/mL and serially diluted in ninety-six well microtitre plates. […] After a thirty-minute incubation period at room temperature, the absorbance was read against a blank, comprising methanol, at 517 nm. […]

[9] = recombinant human CYP1A2, individual phytochemicals

Question: With `Cc1c(C)c2c(c(C)c1O)CCC(C)(C(=O)O)O2` (stereo not drawn) [Trolox] as the compound, how does the “IC50, DPPH assay” value [1] read?
Answer: 1.99 µg/mL (≈ 7.95 µM)

Question: Which IC50 ([2]; read-out: IC50, CYP1A2 activity, recombinant human CYP1A2, individual phytochemicals) does the source give for `C=C1CCC(C(C)C)C2C=C(C)C(=O)CC12` (stereo not drawn) [Cadina-4,10(15)-dien-3-one] here?
Answer: > 500 µM

Question: With `CC1(C)CC[C@]2(C(=O)O)CC[C@]3(C)C(=CC[C@@H]4[C@@]5(C)CC[C@H](O)C(C)(C)[C@@H]5CC[C@]43C)[C@@H]2C1` [Oleanolic acid] as the compound, how does the IC50 [2] read?
Answer: > 100 µM

Question: What about the IC50 ([3]; human liver microsomes) of the same compound?
Answer: > 500 µM

Question: And the IC50 ([4]; listed as oleanolic)?
Answer: > 100 µM

Question: And the IC50 [4]?
Answer: 144 µM

Question: What about the IC50 [5] of the same compound?
Answer: > 500 µM

Question: Which “IC50, CYP1A2 activity” value [2, 9] does the source give for `COc1cc([C@@H]2c3cc4c(cc3[C@H](O)[C@H]3COC(=O)[C@H]23)OCO4)cc(OC)c1O` [4′-Demethylpodophyllotoxin] here?
Answer: No inhibition

Question: What about the “IC50, CYP1A2 activity” value ([2]; recombinant human CYP1A2, individual phytochemicals, listed as 4-demethylpodophyllotoxin) of the same compound?
Answer: no inhibition

Question: What about the “IC50, CYP1A2 activity” value ([2]; recombinant human CYP1A2, individual phytochemicals, listed as 4′-demethylpodophyllotoxin) of the same compound?
Answer: no impact

Question: Which IC50 [2] does the source give for `C[C@H]1[C@H](C)CC[C@]2(C(=O)O)CC[C@]3(C)C(=CC[C@@H]4[C@@]5(C)CC[C@H](O)C(C)(C)[C@@H]5CC[C@]43C)[C@H]12` [Ursolic acid] here?
Answer: > 100 µM

Question: What does the source list for `COc1cc([C@@H]2c3cc4c(cc3[C@H](O)[C@H]3COC(=O)[C@H]23)OCO4)cc(OC)c1OC` [Podophyllotoxin]?
Answer: IC50, CYP1A2 activity [2, 9]: No inhibition; IC50, CYP1A2 activity ([2]; recombinant human CYP1A2, individual phytochemicals, listed as podophyllotoxin): no impact; also recorded: no inhibition

Question: With `O=C(/C=C/c1ccc(O)c(O)c1)O[C@H](Cc1ccc(O)c(O)c1)C(=O)O` [Rosmarinic acid] as the compound, how does the IC50 [3] read?
Answer: > 500 µM

Question: And the IC50 [7]?
Answer: 319 µM

Question: What about the “IC50 Value, reported CYP3A4 inhibition” value [6] of the same compound?
Answer: No impact

Question: And the IC50 [6]?
Answer: 241 µM

Question: What does the source list for `O=C1O[C@H]([C@@H](O)CO)C(O)=C1O` [Ascorbic acid]?
Answer: IC50, DPPH antioxidant assay [8]: 1.32 ± 0.0 µg/mL (≈ 7.49 µM); IC50, DPPH antioxidant assay ([8]; listed as ascorbic acid): 1.3 µg/mL (≈ 7.38 µM)

Question: For `COc1cc(C[C@H]2C(=O)OC[C@@H]2Cc2ccc3c(c2)OCO3)cc(OC)c1OC` [(-)-Yatein], which IC50 [2] is on record?
Answer: 71.9 ± 1.8 µM
